The record followed here is US20230278997A1, “BICYCLO[1.1.1]PENTANE COMPOUNDS FOR THE TREATMENT AND PROPHYLAXIS OF HEPATITIS B VIRUS INFECTION” (Hoffmann-La Roche Inc., priority 2020, published 2023).

pIC50: −log10 of the molar value.

The nature of data set [1]: Human microsome stability assay. The data set is classed as in vitro ADME. As to conditions: 1 μM compound, 0.5 mg/mL microsomal protein, 37° C.; detection limit 6.15 mL/min/kg. The procedure:
Human Microsome Stability Assay The human microsomal stability assay is used for early assessment of metabolic stability of a test compound in human liver microsomes. Human liver microsomes (Cat. […] The reactions were initiated by adding NADPH regenerating system. […] Following precipitation and centrifugation, the amount of compound remaining in the samples were determined by LC-MS/MS. Controls of no NADPH regenerating system at zero and 30 minutes were also prepared and analyzed.

The test system of data set [2] is primary human hepatocyte (PHH). The data set can be described thus: Cytotoxicity in PHH natural infection assay (Cell Counting Kit-8). The data set is classed as cell-based. As to conditions: therapeutic index; CC50 by CCK8 in PHH over HBsAg IC50. As to the method:
Detailed procedures regarding primary human hepatocyte (PHH) HBV natural infection assay are described as below. One tube of frozen PHH (10 million cells) was thawed in 37° C. water bath and then transferred to 20 mL of PHH thawing medium (Sigma, InVitroGRO HT Medium, Cat. 503319) with gently mixing. The cells were then centrifuged at […] for 5 min, the supernatant was discarded and the tube was refilled with 25 mL of PHH plating medium (Sigma, InVitroGRO CP Medium, Cat. 503317). The tube was shaken very gently to re-suspend all cells, and then 50 μl of cells were transferred to each well of a 384-well collagen I coated plate with appropriate liquid handling equipment, e.g. Integra VIAFLO384 or Agilent Bravo. The cells were then cultured for 24 hours in a cell incubator. For HBV infection, after PHH attachment on the culture plate, the plating medium was removed and replenished with PHH culture medium containing HBV virus. The PHH culture medium was prepared with Dulbecco's Modified Eagle Medium (DMEM)/F12 (1:1 in volume ratio) containing 10% fetal bovine serum (Gibco, Cat.10099141), 5 ng/mL human epidermal growth factor (Gibco, Cat.PHG031 IL), 20 ng/mL dexamethasone (Sigma, Cat.D4902-100 mg), 250 ng/mL human recombinant insulin (Gibco, Cat.41400045) and 100 U/mL penicillin. HBV virus at 200 genome equivalent (GE) per cell with 4% PEG8000 (Sigma, Cat.P1458) containing culture medium were added to the PHH culture medium for infection. The cells were then cultured for 24 hours in cell incubator. Then the cell culture supernatant was removed. The HBV-infected PHH were cultured with sandwich culture method with PHH culture medium containing 1% DMSO and 0.25 mg/mL matrix gel for 72 hours. The supernatant was then refreshed with PHH culture medium containing different concentrations of testing compounds for two times with 72-hour interval. At the end of treatment, the supernatant was collected for viral markers measurements, including HBsAg, HBeAg, HBV DNA and cytotoxicity. HBsAg and HBeAg were detected using alphalisa method using their specific antibodies. For HBV DNA detection, HBV DNA Quantitative Fluorescence Diagnostic Kit (Sansure Biotech Inc.) was used following the manufacture's protocol. Cytotoxicity was determined using Cell Counting Kit-8 (CCK8, Dojindo Molecular Technologies, Inc.).

For data set [3], the system named is HBsAg. In words: microbe, parasite or virus in culture. The note with it: Hepatitis B virus, read-out: HBsAg IC50. The data set is classed as cell-based, HBV.
In data set [4] the test system is HBeAg. The data set can be described thus: microbe, parasite or virus in culture. The data set is classed as cell-based, HBV. The note with it: Hepatitis B virus, read-out: HBeAg IC50.

On to `CS(=O)(=O)C1(c2ccc(C(=O)NC34CC(c5nc(C6CC6)cs5)(C3)C4)o2)CC1` [Example 14, N-[3-(4-cyclopropylthiazol-2-yl)-1-bicyclo[1.1.1]pentanyl]-5-(1-methylsulfonylcyclopropyl)furan-2-carboxamide], for which the “Clearance of human microsome” value in data set [1] was at most 6.15 mL/min/kg.

Regarding `CS(=O)(=O)C1(c2ccc(C(=O)NC34CC(c5nc(-c6ccc(Cl)nc6)cs5)(C3)C4)o2)CC1` [Example 9, N-[3-[4-(6-chloro-3-pyridyl)thiazol-2-yl]-1-bicyclo[1.1.1]pentanyl]-5-(1-methylsulfonylcyclopropyl)furan-2-carboxamide], the “Clearance of human microsome” value in data set [1] is given as at most 6.15 mL/min/kg.

A word on the pIC50: it is the negative decadic logarithm of the IC50, by convention in mol/L. As to `CS(=O)(=O)C1(c2ccn(C(=O)NC34CC(c5nc(-c6ccc(Cl)cc6)cs5)(C3)C4)n2)CC1` [Example 53, N-[3-[4-(4-chlorophenyl)thiazol-2-yl]-1-bicyclo[1.1.1]pentanyl]-3-(1-methylsulfonylcyclopropyl)pyrazole-1-carboxamide], the “TI (CC50/IC50 HBsAg)” value in data set [2] is on record as 21.88. Besides, the values for the pIC50 in data set [3] and in data set [4] were 6.77 and 6.96, respectively.

On to `CS(=O)(=O)C1(c2ccc(C(=O)NC34CC(c5nc(-c6ccc(Cl)cn6)cs5)(C3)C4)o2)CC1` [Example 10, N-[3-[4-(5-chloro-2-pyridyl)thiazol-2-yl]-1-bicyclo[1.1.1]pentanyl]-5-(1-methylsulfonylcyclopropyl)furan-2-carboxamide], for which the “TI (CC50/IC50 HBsAg)” value in data set [2] was 31.11. Besides, the “Clearance of human microsome” value in data set [1] is at most 6.15 mL/min/kg. For the same compound, the pIC50 was 6.55 in data set [3] and 6.70 in data set [4].

`CS(=O)(=O)C1(c2ccc(C(=O)NC34CC(c5ccn(-c6ccc(Cl)cc6)n5)(C3)C4)o2)CC1` [Example 42, N-[3-[1-(4-chlorophenyl)pyrazol-3-yl]-1-bicyclo[1.1.1]pentanyl]-5-(1-methylsulfonylcyclopropyl)furan-2-carboxamide]: the “TI (CC50/IC50 HBsAg)” value in data set [2] was determined as 13.39. Also, the “Clearance of human microsome” value in data set [1] stood at 8.21 mL/min/kg. Also, the pIC50 in data set [3] is 6.23; in data set [4], 6.47.

`CS(=O)(=O)C1(c2ccc(C(=O)NC34CC(c5cn(-c6ccc(Cl)cc6)nn5)(C3)C4)o2)CC1` [Example 29, N-[3-[1-(4-chlorophenyl)triazol-4-yl]-1-bicyclo[1.1.1]pentanyl]-5-(1-methylsulfonylcyclopropyl)furan-2-carboxamide]: in data set [1], the “Clearance of human microsome” value was at most 6.15 mL/min/kg.

Take `NC(=O)c1cc(C(=O)NC23CC(c4nc(-c5ccc(Cl)cc5)no4)(C2)C3)ccn1` [Example 36, N4-[3-[3-(4-chlorophenyl)-1,2,4-oxadiazol-5-yl]-1-bicyclo[1.1.1]pentanyl]pyridine-2,4-dicarboxamide]: the “Clearance of human microsome” value in data set [1] came out at 11.99 mL/min/kg.

For the compound `CS(=O)(=O)C1(c2ccc(C(=O)NC34CC(c5ncc(-c6ccccc6)s5)(C3)C4)o2)CC1` [Example 22, 5-(1-methylsulfonylcyclopropyl)-N-[3-(5-phenylthiazol-2-yl)-1-bicyclo[1.1.1]pentanyl]furan-2-carboxamide], the “Clearance of human microsome” value in data set [1] is at most 6.15 mL/min/kg.

Regarding `CS(=O)(=O)C1(c2ccc(C(=O)NC34CC(c5ncc(Br)s5)(C3)C4)o2)CC1` [Example 24, N-[3-(5-bromothiazol-2-yl)-1-bicyclo[1.1.1]pentanyl]-5-(1-methylsulfonylcyclopropyl)furan-2-carboxamide], the “Clearance of human microsome” value in data set [1] was at most 6.15 mL/min/kg.

Regarding `CS(=O)(=O)C1(c2ccc(C(=O)NC34CC(c5nc(C(F)(F)F)cs5)(C3)C4)o2)CC1` [Example 16, 5-(1-methylsulfonylcyclopropyl)-N-[3-[4-(trifluoromethyl)thiazol-2-yl]-1-bicyclo[1.1.1]pentanyl]furan-2-carboxamide], the “Clearance of human microsome” value in data set [1] is at most 6.15 mL/min/kg.

Take `CS(=O)(=O)C1(c2ccc(C(=O)NC34CC(c5ncc(-c6cnc(Cl)cn6)s5)(C3)C4)o2)CC1` [Example 59, N-[3-[5-(5-chloropyrazin-2-yl)thiazol-2-yl]-1-bicyclo[1.1.1]pentanyl]-5-(1-methylsulfonylcyclopropyl)furan-2-carboxamide]: the “Clearance of human microsome” value in data set [1] was 6.89 mL/min/kg.

As to `CS(=O)(=O)C1(c2nnc(C(=O)NC34CC(c5ncc(-c6ccc(Cl)cc6)s5)(C3)C4)o2)CC1` [Example 20, N-[3-[5-(4-chlorophenyl)thiazol-2-yl]-1-bicyclo[1.1.1]pentanyl]-5-(1-methylsulfonylcyclopropyl)-1,3,4-oxadiazole-2-carboxamide], in data set [1], the “Clearance of human microsome” value is given as at most 6.15 mL/min/kg.

Take `CS(=O)(=O)Cc1ncc(C(=O)NC23CC(c4nc(-c5ccc(Cl)cc5)cs4)(C2)C3)o1` [Example 5, N-[3-[4-(4-chlorophenyl)thiazol-2-yl]-1-bicyclo[1.1.1]pentanyl]-2-(methylsulfonylmethyl)oxazole-5-carboxamide]: in data set [1], the “Clearance of human microsome” value is on record as at most 6.15 mL/min/kg.

Regarding `CS(=O)(=O)C1(c2ccn(C(=O)NC34CC(c5ncc(-c6ccc(Cl)cc6)s5)(C3)C4)n2)CC1` [Example 54, N-[3-[5-(4-chlorophenyl)thiazol-2-yl]-1-bicyclo[1.1.1]pentanyl]-3-(1-methylsulfonylcyclopropyl)pyrazole-1-carboxamide], the “TI (CC50/IC50 HBsAg)” value in data set [2] was found to be 10.83. The pIC50 is 7.22 in data set [3] and 7.30 in data set [4].

As for `CS(=O)(=O)C1(c2ncc(C(=O)NC34CC(c5ncc(-c6ccc(Cl)cc6)s5)(C3)C4)o2)CC1` [Example 55, N-[3-[5-(4-chlorophenyl)thiazol-2-yl]-1-bicyclo[1.1.1]pentanyl]-2-(1-methylsulfonylcyclopropyl)oxazole-5-carboxamide], the “TI (CC50/IC50 HBsAg)” value in data set [2] was 89.00. Moreover, the pIC50 is 7.05 in data set [3] and 7.15 in data set [4].

`CS(=O)(=O)C1(c2ccc(C(=O)NC34CC(c5ncc(-c6ccc(Cl)nc6)s5)(C3)C4)o2)CC1` [Example 56, N-[3-[5-(6-chloro-3-pyridyl)thiazol-2-yl]-1-bicyclo[1.1.1]pentanyl]-5-(1-methylsulfonylcyclopropyl)furan-2-carboxamide]: the “Clearance of human microsome” value in data set [1] is at most 6.15 mL/min/kg.

As to `CS(=O)(=O)C1(c2ccc(C(=O)NC34CC(c5nsc(-c6ccccc6)n5)(C3)C4)o2)CC1` [Example 25, 5-(1-methylsulfonylcyclopropyl)-N-[3-(5-phenyl-1,2,4-thiadiazol-3-yl)-1-bicyclo[1.1.1]pentanyl]furan-2-carboxamide], the “Clearance of human microsome” value in data set [1] is on record as at most 6.15 mL/min/kg.

In the case of `CS(=O)(=O)C1(c2ccc(C(=O)NC34CC(c5nc(-c6ccccc6)ns5)(C3)C4)o2)CC1` [Example 17, 5-(1-methylsulfonylcyclopropyl)-N-[3-(3-phenyl-1,2,4-thiadiazol-5-yl)-1-bicyclo[1.1.1]pentanyl]furan-2-carboxamide], in data set [1], the “Clearance of human microsome” value is at most 6.15 mL/min/kg.

On to `CS(=O)(=O)C1(c2ccc(C(=O)NC34CC(c5ncc(-c6ccc(Cl)cn6)s5)(C3)C4)o2)CC1` [Example 57, N-[3-[5-(5-chloro-2-pyridyl)thiazol-2-yl]-1-bicyclo[11.11]pentanyl]-5-(1-methylsulfonylcyclopropyl)furan-2-carboxamide], for which the “Clearance of human microsome” value in data set [1] turned out to be 15.39 mL/min/kg.

Consider `CS(=O)(=O)C1(c2ccc(C(=O)NC34CC(c5nnc(-c6ccc(Cl)cc6)o5)(C3)C4)o2)CC1` [Example 28, N-[3-[5-(4-chlorophenyl)-1,3,4-oxadiazol-2-yl]-1-bicyclo[1.1.1]pentanyl]-5-(1-methylsulfonylcyclopropyl)furan-2-carboxamide], for which, in data set [1], the “Clearance of human microsome” value is on record as at most 6.15 mL/min/kg.

`CS(=O)(=O)C1(c2ccc(C(=O)NC34CC(c5ncc(C6CC6)s5)(C3)C4)o2)CC1` [Example 23, N-[3-(5-cyclopropylthiazol-2-yl)-1-bicyclo[1.1.1]pentanyl]-5-(1-methylsulfonylcyclopropyl)furan-2-carboxamide]: the “Clearance of human microsome” value in data set [1] was at most 6.15 mL/min/kg.
